Results reported in patent US11464810B2, “Ascaroside treatment of eosinophilic esophagitis” (California Institute of Technology, priority 2016, dated 2022).

Experiments:
[1] = test system: ovalbumin model of murine asthma; test: ovalbumin model of murine asthma; type: in vivo, mouse; conditions: C57BL/6 mice
Experimental: Adult C57BL/6 mice were sensitized by administering 2 ug OVA (Sigma-Aldrich) and 1 mg alum (Thermo) with 50ng ascr#7 or saline, via intraperitoneal injection, on Day 0 and 14. On day 24, the mice were challenged with intranasal administration of saline containing 100 μg OVA, under isoflurane anesthesia. Histologic sections were stained with H&E or PAS to score for eosinophilia, goblet cell metaplasia, and airway hyper-reactivity. Mice were also placed in a computer controlled small animal ventilator (SCIREQ) to score for airway hyper-reactivity following methacholine challenge. […] Animals with asthma have higher resistance of flow, which would be represented as higher “RL” values in FIG. 3B-FIG. 3F. […] Lungs were collected, postmortem, and then sectioned and stained to show the presence of eosinophils and mucus. […] In FIG. 3G, the asthmatic mouse lung, here labeled “Asthma” has a large number of mucus and eosinophils that surround the bronchioles and occupy the alveolar space; wherein the thick barriers would prohibit oxygen from easily diffusing.

IL-6 = IL-6 secretion by bone marrow-derived dendritic cells, ELISA; type: cell-based, mouse; conditions: different concentrations of ascr#7
Experimental: (§1) Bone marrow was extracted from femurs of C57BL/6 mice (6-12 weeks of age). These mice were euthanized by CO2 inhalation and their femurs were removed. After removing the remaining flesh from the bone, they were cut at the metaphysis. Bone marrow was flushed out using a syringe filled with RPMI. The extracted marrow was further broken down by resuspension with syringe. The mixture was centrifuged and the pellet was re-suspended in RPMI. […] 20 ng of GM-CSF was added to each well. At day 3, and every 3 days thereafter, the media was replaced. Cells were used for experiments between day 7-9.
(§2) Bone marrow dendritic cells were collected between day 7-9 of culture. Cells were washed twice and counted. Ascr#7 in water or RPMI were placed in corresponding wells, and are allowed to dry. 10^6 cells were then plated in each well in a 24 well culture plate. Cells were left to incubate with ascr#7 for 5 minutes. Following the brief incubation, different TNFα was added to the wells. These bone marrow dendritic cells were then cultured at 37° C. for 18-72 hours. Cells were collected via the pellet generated by centrifuge. The supernatant was also preserved. EBioscience ELISA kits was used to determine the concentration of different cytokines present in each well.

[2] = test system: T cell transfer model of colitis; test: T cell transfer model of colitis (immune dysregulation model of inflammatory bowel disease); type: in vivo, mouse; conditions: Rag −/− mice, 300 ng ascr#7 intraperitoneal every 3 days between day 14 and day 28
Experimental: A T cell transfer model of colitis where 10^6 CD4+ T cells were transferred to adult Rag −/− mice was used, and either saline or 300 ng ascr#7 were administered via intraperitoneal injection every 3 days between day 14 and day 28. On day 28, the mice were euthanized and colon analysis was performed. n=3 mice per group. […] The normal mouse colon is long, skinny, and has discrete fecal pellets. The diseased mouse colon, with IBD, has a shortened, dilated colon, with diarrhea instead of discrete fecal pellets.

IL-1β = IL-1β secretion by bone marrow-derived dendritic cells, ELISA; type: cell-based, mouse; conditions: different concentrations of ascr#7
Experimental: as §1, §2

[3] = 50ng ascr#7 intraperitoneal on Day 0 and 14, H&E or PAS sections

SMILES: C[C@H](CC/C=C/C(=O)O)O[C@@H]1O[C@@H](C)[C@H](O)C[C@H]1O [ascr#7]
- development of eosinophilia [1, 3]: reduces the development of
- development of goblet cell metaplasia [1, 3]: reduces the development of
- lung histology (eosinophils and mucus; boundaries between bronchioles and alveolar space) ([1]; 50ng ascr#7 intraperitoneal on Day 0 and 14, stained lung sections, FIG. 3G): thin boundaries between the bronchioles and the alveolar space, comparable to the normal mice
- resistance of air flow (RL), airway hyper-reactivity following methacholine challenge ([1]; 50ng ascr#7 intraperitoneal on Day 0 and 14 with OVA/alum, FIG. 3B-3F): low resistance of air flow, with comparable levels to normal mice
- IL-6 levels (IL-6; dendritic cells not stimulated with TNF-α, FIG. 1 left side): very low levels of IL-6
- secreted IL-6 levels (IL-6; dendritic cells stimulated with TNF-α, FIG. 1 right side): reduces these levels significantly
- development of abnormal lumen dilation [2]: markedly reduces the development of
- development of colon shortening [2]: markedly reduces the development of
- development of diarrhea [2]: markedly reduces the development of
- colon appearance (length, dilation, fecal pellets) ([2]; colon analysis day 28, FIG. 4): normal appearing colon, which is long, skinny, and contains discrete fecal pellets
- IL-1β levels (IL-1β; dendritic cells not stimulated with TNF-α, FIG. 2 left side): very low levels of IL-1β
- secreted IL-1β levels (IL-1β; dendritic cells stimulated with TNF-α, FIG. 2 right side): reduces these levels significantly
